Where a name gives a salt, the structure may show the parent alone. Read-outs that look alike come from different tables or passages of the source.
Assays:
[1] = target: T1, serotonin S2 (5-HT2A) receptors (Rattus norvegicus, UniProt P14842); test: Inhibition of 3H-ketanserin binding to serotonin S2 (5-HT2A) receptors in rat cortex in vitro
T1 construct: Male Wistar (Mol:Wist) rats (125-250 g) are sacrificed and cortical tissue is dissected and weighed; from tissue; host or cells: rat cortex membranes (male Wistar rats)
Method: Inhibition of ^3H-Ketanserin Binding to Serotonin S2 (5-HT2Å) Receptors in Rat Cortex in vitro
By this method the inhibition by drugs of the binding of ^3H-ketanserin (0.5 nM) to serotonin S2 (5-HT2) receptors in membranes from rat cortex is determined in vitro.
The tissue is homogenized (Ultra Turrax, 10 sec) in 10 mL of ice cold 50 mM tris buffer pH 7.7 (at 25° C.). The centrifuge glassware used in this step has been rinsed by sonication for 10 min in ethanol. The homogenate is centrifuged twice at 20,000 g for 10 min. at 4° C., with rehomogenization of the pellet in 10 mL icecold buffer. The final pellet is homogenized in 250 vol (w/v) icecold buffer.
Incubation tubes (96 deep well titer plate) kept on ice receive […] of ^3H ketanserin (final concentration 0.5 nM).
The binding experiment is initiated by addition of […] of tissue suspension (final tissue content corresponds to 4 mg original tissue) and by placing the 96 deep well titer plate in a 37° C. water bath. All tests are made in triplicates.
After incubation for 30 min, the samples are filtered on a Brandel harvester under vacuum (18 inch. Hg) through printed filter mat B (13 mm). Titerplate and filter are washed 2×10 sec. flow 50 L/h with ice cold buffer.
The printed filter mat with purred labelled tissue are dried for 1 h at 110° C. and hereafter placed in a sample bag with Meltilex B/HS 14.5 g and melted together on the T-tray heat seal.
Specific binding is obtained by subtracting the nonspecific binding in the presence of 1 mM mianserin.
(§1) For determination of the inhibition of binding, five concentrations of drugs covering 3 decades are used.
^3H-ketanserin=(ethylene-^3H)-ketanserin hydrochloride from New England Nuclear, specific activity 60-80 Ci/mmol.

[2] = target: α1-adrenoceptors; test: Inhibition of 3H-prazosin binding to α1-adrenoceptors in rat brain in vitro; settings: 3H-prazosin 0.25 nM, membranes from rat brain
Method: Method and results in Hyttel & Larsen, J. Neurochem.
The tissue is homogenized (Ultra Turrax, 10 se) in 10 mL of ice cold 50 mM tris buffer pH 7.7 (at 25° C.). The homogenate is centrifuged twice at 20,000 g for 10 min at 4° C. with rehomogenization of the pellet in 10 ml icecold buffer. The final pellet is homogenized in 250 vol (w/v) icecold buffer.
The binding experiment is initiated by addition of […] of tissue suspension (final tissue content corresponds to 3 mg original tissue) and by placing the 96 deep well titer plate in a 25 ° C. water bath. All tests are made in triplicates. After incubation for 20 min, the samples are filtered on a Brandel harvester under vacuum (18 inch. Hg) through printed filtermat B (13 mm). Titerplates and filter are washed 1×10 sec flow 50 L/h with ice cold buffer.
The filter mat is dried for 1 h at 110° C. and then placed in a sample bag with Meltilex B/HS (14.5 g) and melted together on the T-Tray heat sealer.
as §1

[3] = target: T2, dopamine D2 receptors (Rattus norvegicus, UniProt P61169); test: Inhibition of 3H-spiperone binding to dopamine D2 receptors in rat corpus striatum in vitro
T2 construct: Male Wistar (Mol:Wistar) rats (125-250 g) are sacrificed and striatal tissue is dissected and weighed; from tissue; host or cells: rat corpus striatum membranes (male Wistar rats)
Method: Inhibition of ^3H-Spiperone Binding to Dopamine D2 Receptors in Rat Corpus Striatum in vitro
By this method, the inhibition by drugs of the binding of ^3H -spiperone (=^3H-spiro-peridol) (0.5 nM) to dopamine D-2 receptors in membranes from rat corpus striatum is determined in vitro. […] Pharmacol. Toxicol. […] This is a test for dopamine D2 receptor binding affinity in vitro.
The tissue is homogenized (Ultra Turrax, 10 sec.) in 10 mL of ice-cold 50 mM K-phosphate buffer pH 7.4 (at 25° C.). The homogenate is centrifuged twice at 20,000 g for 10 min at 4° C. with rehomogenization of the pellet in 10 mL ice-cold buffer. The final pellet is homogenized in 1300 vol (w/v) ice-cold buffer.
The binding experiment is initiated by addition of 100 μl of ^3H-spiperone (final concentration 0.5 nM) and by placing the tubes in a 37° C. water bath. […] The tubes are rinsed with 5 mL ice-cold buffer which are then poured on the filters. Thereafter, the filters are washed with 2×5 mL of buffer. The filters are placed in counting vials and 4 mL of appropriate scintillation fluid (e.g. Picofluor ™15) are added. After shaking for 1 h and storage for 2 hrs in the dark, the content of radioactivity is determined by liquid scintillation counting. Specific binding is obtained by subtracting the nonspecific binding in the presence of 10 μM of 6,7-ADTN.
For determination of the inhibition of binding, five concentrations of drugs covering 3 orders of magnitude are used.
England, specific activity 15-25 Ci/mmol.

[4] = 3H-ketanserin 0.5 nM, membranes from rat cortex, read-out: IC50 values in nM, 5-HT2A
[5] = 3H-spiperone 0.5 nM, membranes from rat corpus striatum, read-out: IC50 values in nM, D2

T1 sequence (P14842 whole entry): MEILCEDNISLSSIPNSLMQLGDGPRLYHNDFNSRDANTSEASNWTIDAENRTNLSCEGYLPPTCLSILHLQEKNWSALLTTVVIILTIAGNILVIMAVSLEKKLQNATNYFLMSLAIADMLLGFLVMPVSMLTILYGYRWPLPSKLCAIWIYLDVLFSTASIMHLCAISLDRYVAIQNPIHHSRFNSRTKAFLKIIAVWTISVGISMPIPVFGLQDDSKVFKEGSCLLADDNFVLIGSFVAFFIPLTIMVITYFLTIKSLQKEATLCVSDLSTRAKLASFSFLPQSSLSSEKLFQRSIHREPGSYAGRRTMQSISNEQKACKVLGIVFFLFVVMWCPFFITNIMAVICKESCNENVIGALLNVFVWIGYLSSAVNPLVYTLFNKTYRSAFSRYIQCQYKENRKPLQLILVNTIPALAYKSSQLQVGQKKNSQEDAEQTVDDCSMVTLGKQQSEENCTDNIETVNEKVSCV
T2 sequence (P61169 whole entry): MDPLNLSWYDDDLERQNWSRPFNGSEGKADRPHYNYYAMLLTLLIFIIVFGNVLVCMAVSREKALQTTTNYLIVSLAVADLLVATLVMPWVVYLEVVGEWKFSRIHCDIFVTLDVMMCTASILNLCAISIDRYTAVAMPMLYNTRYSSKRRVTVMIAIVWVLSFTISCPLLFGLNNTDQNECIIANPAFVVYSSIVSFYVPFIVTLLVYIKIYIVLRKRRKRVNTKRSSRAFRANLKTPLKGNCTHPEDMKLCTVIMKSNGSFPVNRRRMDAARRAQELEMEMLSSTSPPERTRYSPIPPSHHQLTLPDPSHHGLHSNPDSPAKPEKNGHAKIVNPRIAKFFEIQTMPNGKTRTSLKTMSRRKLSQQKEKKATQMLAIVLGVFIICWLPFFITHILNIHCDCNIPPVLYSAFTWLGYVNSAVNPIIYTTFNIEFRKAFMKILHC

SMILES	melting point [°C]	IC50 [1, 4] [nM]	IC50 [2] [nM]	IC50 [3, 5] [nM]	IC50 [1] [nM]	IC50 [3] [nM]
Cn1nnnc1Cc1ccc2c(c1)c(C1CCN(CCN3CCNC3=O)CC1)cn2-c1ccc(F)cc1 (as salt: fumarate) [Compound 23c, 1-[2-[4-[(-(4-fluorophenyl)-5-[(1-methyltetrazol-5-yl)methyl]-1H-indol-3-yl]-1-piperidinyl]ethyl]-2-imidazolidinone 2.5 fumarate]	169 to 171					
Cn1nnc(-c2ccc3c(c2)c(C2=CCN(CCN4CCNC4=O)CC2)cn3-c2ccncc2)n1 [Compound 5a, 1-[2-[4-[5-(2-Methyltetrazol-5-yl)-1-(4-pyridyl)-1H-indol-3-yl]-1,2,3,6-tetrahydro-1-pyridinyl]ethyl]-2-imidazolidinone]	177 to 178	> 100	12	> 100		
Cn1nnc(-c2ccc3c(c2)c(C2CCN(CCN4CCNC4=O)CC2)cn3-c2ccncc2)n1 [Compound 6a, 1-[2-[4-[5-(2-Methyltetrazol-5-yl)-1-(4-pyridyl)-1H-indol-3-yl]-1-piperidinyl]ethyl]-2-imidazolidinone]	204 to 206	> 100	18	> 100		
Cn1nnc(CCN2CC=C(c3cn(-c4ccc(F)cc4)c4ccc(-c5nnn(C)n5)cc34)CC2)n1 [Compound 17a, 1-(4-Fluorophenyl)-5-(2-methyltetrazol-5-yl)-3-[1-[2-(2-methyltetrazo-5-yl)ethyl]-1,2,3,6-tetrahydropyridin-4-yl]-1H-indole]		70	4	20		
Cn1nnc(-c2ccc3c(c2)c(C2=CCN(CCc4nnnn4C)CC2)cn3-c2ccc(F)cc2)n1 [Compound 17b, 1-(4-Fluorophenyl)-5-(2-methyltetrazol-5-yl)-3-[1-[2-(1-methyltetrazol-5-yl)ethyl]-1,2,3,6-tetrahydropyridin-4-yl]-1H-indole, fumarate]		450	4.9	97		
CN1CC=C(c2cn(-c3ccc(F)cc3)c3ccc(-c4nnn(C)n4)cc23)CC1 [Compound 21b]	142 to 144		9.4		> 100	14
Cn1nnc(-c2ccc3c(c2)c(C2=CCN(CCN4CCNC4=O)CC2)cn3-c2ccc(F)cc2)n1 [Compound 22a, 1-[2-[4-[1-(4-Fluorophenyl)-5-(2-methyltetrazol-5-yl)-1H-indol-3-yl]-1,2,3,6-tetrahydropyridin-1-yl]ethyl]-2-imidazolidinone]		210	1.5	37		
Cn1nnnc1-c1ccc2c(c1)c(C1=CCN(CCN3CCNC3=O)CC1)cn2-c1ccc(F)cc1 [Compound 22b, 1-[2-[4-[1-(4-fluorophenyl)-5-(1-methyltetrazol-5-yl)-1H-indol-3-yl]-1,2,3,6-tetrahydropyridin-1-yl]ethyl]-2-imidazolidinone]	198 to 200	38	0.75	4.7		
CCn1nnc(-c2ccc3c(c2)c(C2=CCN(CCN4CCNC4=O)CC2)cn3-c2ccc(F)cc2)n1 [Compound 22c]	179 to 181	> 100	7.8	110		
Cn1nnnc1Cc1ccc2c(c1)c(C1=CCN(CCN3CCNC3=O)CC1)cn2-c1ccc(F)cc1 [Compound 22d, 1-[2-[4-[1-(4-fluorophenyl)-5-[(1-methyltetrazol-5-yl)methyl]-1H-indol-3-yl]-1,2,3,6-tetrahydropyridin-1-yl]ethyl]-2-imidazolidinone]	174 to 176	18	0.72	5		
Cn1nnc(Cc2ccc3c(c2)c(C2=CCN(CCN4CCNC4=O)CC2)cn3-c2ccc(F)cc2)n1 [Compound 22e, 1-[2-[4-[1-(4-fluorophenyl)-5-[(2-methyltetrazol-5-yl)methyl]-1H-indol-3-yl]-1,2,3,6-tetrahydropyridin-1-yl]ethyl]-2-imidazolidinone]	129 to 131	5	1.5	8.6		
Cn1ncc(-c2ccc3c(c2)c(C2=CCN(CCN4CCNC4=O)CC2)cn3-c2ccc(F)cc2)n1 [Compound 22g, 1-[2-[4-[1-(4-fluorophenyl)-5-(2-methyltriazol-4-yl)-1H-indol-3-yl]-1,2,3,6-tetrahydropyridin-1-yl]ethyl]-2-imidazolidinone]	175 to 177	94		28		
CCn1ncc(-c2ccc3c(c2)c(C2=CCN(CCN4CCNC4=O)CC2)cn3-c2ccc(F)cc2)n1 [Compound 22i, 1-[2-[4-[5-(2-ethyltriazol-4-yl)-1-(4-fluorophenyl)-1H-indol-3-yl]-1,2,3,6-tetrahydropyridin-1-yl]ethyl]-2-imidazolidinone]	143 to 145	22		51		
CCn1nnc(-c2ccc3c(c2)c(C2CCN(CCN4CCNC4=O)CC2)cn3-c2ccc(F)cc2)n1.Cl.Cl [Compound 23a, 1-[2-[4-[5-(2-ethyltetrazol-5-yl)-1-(4-fluorophenyl)-1H-indol-3-yl]-1-piperidinyl]ethyl]-2-imidazolidinone dihydrochloride]	172 to 174	53	6.1	> 100		
CN1CCC(c2cn(-c3ccc(F)cc3)c3ccc(-c4nnn(C)n4)cc23)CC1 [Compound 23b, 1-(4-fluorophenyl)-3-(1-methyl-4-piperidinyl)-5-(2-methyltetrazol-5-yl)-1H-indole]		> 100	7.1	> 100		
Cn1nnnc1Cc1ccc2c(c1)c(C1CCN(CCN3CCNC3=O)CC1)cn2-c1ccc(F)cc1 [Compound 23c, 1-[2-[4-[(-(4-fluorophenyl)-5-[(1-methyltetrazol-5-yl)methyl]-1H-indol-3-yl]-1-piperidinyl]ethyl]-2-imidazolidinone 2.5 fumarate]		8.3	0.5	3.7		
COc1cc2nc(N3CCN(C(=O)c4ccco4)CC3)nc(N)c2cc1OC [Prazosin, prazosin, reference compound]			0.36	11000		
O=C1NCCN1CCN1CCC(c2cn(-c3ccc(F)cc3)c3ccc(Cl)cc23)CC1 [Sertindole, sertindole, reference compound]			3.4			
